Data: ChEMBL document CHEMBL1144784, “A novel series of potent and selective ketone histone deacetylase inhibitors with antitumor activity in vivo” (J Med Chem, 2008)

Assays:
Plasma [1] = assay: Stability in rat plasma at 5 uM after 24 hrs; type: ADME, cell-free
Plasma [2] = assay: Stability in dog plasma at 5 uM after 24 hrs; type: ADME, cell-free, Canis lupus familiaris
HeLa = assay: Antiproliferative activity against human HeLa cells by CellTiter-Blue cell viability assay; type: functional, cell-based
[3] = AUC (0 to infinity) in Sprague-Dawley rat at 3 mg/kg, iv; type: ADME, organism-based; set-up: dose 3 mg/kg, route intravenous, time infinity; settings: plasma
[4] = Clearance in Sprague-Dawley rat plasma at 3 mg/kg, iv; type: ADME, organism-based; set-up: dose 3 mg/kg, route intravenous
Plasma [5] = assay: Stability in human plasma at 5 uM after 24 hrs; type: ADME, cell-free
Plasma [6] = assay: Stability in mouse plasma at 5 uM after 24 hrs; type: ADME, cell-free
Histone deacetylase 1 = Histone deacetylase 1 (Homo sapiens, UniProt Q13547)
Chain of Histone deacetylase 1 (Q13547 whole entry): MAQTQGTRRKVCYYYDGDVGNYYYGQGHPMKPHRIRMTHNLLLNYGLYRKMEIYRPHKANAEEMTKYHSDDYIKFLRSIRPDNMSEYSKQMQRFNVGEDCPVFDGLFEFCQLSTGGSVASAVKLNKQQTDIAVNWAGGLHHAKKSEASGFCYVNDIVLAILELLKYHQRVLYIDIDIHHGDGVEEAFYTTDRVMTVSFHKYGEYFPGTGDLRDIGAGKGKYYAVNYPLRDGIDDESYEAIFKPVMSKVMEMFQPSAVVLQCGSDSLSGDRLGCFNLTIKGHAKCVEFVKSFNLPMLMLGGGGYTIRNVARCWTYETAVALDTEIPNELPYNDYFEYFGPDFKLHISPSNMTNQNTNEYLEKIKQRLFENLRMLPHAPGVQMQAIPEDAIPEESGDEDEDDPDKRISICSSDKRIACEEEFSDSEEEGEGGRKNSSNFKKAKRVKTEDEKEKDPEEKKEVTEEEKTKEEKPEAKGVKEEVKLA

Histone deacetylase 4 [7] = molecular target: T1, Histone deacetylase 4 (Homo sapiens, UniProt P56524); assay: Inhibition of HDAC4 expressed in Escherichia coli
Target sequence in this assay (P56524 whole entry): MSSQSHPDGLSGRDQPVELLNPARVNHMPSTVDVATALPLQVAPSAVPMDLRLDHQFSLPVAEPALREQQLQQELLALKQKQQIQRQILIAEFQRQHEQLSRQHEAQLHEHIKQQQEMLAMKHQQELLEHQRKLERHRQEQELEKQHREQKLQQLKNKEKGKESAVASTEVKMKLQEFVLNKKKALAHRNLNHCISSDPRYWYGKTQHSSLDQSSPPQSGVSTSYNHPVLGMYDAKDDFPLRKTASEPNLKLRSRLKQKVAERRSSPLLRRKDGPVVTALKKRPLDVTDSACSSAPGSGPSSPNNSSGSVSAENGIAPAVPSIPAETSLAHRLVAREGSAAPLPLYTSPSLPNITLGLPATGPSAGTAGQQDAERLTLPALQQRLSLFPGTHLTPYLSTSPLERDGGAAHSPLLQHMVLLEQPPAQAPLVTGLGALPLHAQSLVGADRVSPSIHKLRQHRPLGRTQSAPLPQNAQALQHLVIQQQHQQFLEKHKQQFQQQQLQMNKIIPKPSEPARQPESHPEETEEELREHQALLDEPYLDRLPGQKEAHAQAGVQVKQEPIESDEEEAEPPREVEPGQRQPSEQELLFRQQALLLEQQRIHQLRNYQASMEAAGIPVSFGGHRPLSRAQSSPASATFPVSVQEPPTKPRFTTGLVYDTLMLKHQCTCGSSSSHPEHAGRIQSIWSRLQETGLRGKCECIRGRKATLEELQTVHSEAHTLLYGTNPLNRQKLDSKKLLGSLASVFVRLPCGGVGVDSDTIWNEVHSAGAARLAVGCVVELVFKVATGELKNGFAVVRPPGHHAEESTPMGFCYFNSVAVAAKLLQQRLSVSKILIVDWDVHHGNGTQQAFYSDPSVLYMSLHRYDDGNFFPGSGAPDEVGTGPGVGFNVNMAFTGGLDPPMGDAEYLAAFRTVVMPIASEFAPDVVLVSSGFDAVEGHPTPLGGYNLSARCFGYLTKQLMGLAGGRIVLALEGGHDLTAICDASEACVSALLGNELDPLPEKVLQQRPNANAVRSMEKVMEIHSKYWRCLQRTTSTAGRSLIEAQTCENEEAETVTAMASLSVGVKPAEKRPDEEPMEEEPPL

G-401 = assay: Antiproliferative activity against human G401 cells by CellTiter-Blue cell viability assay; type: functional, cell-based
Histone deacetylase 3 = Histone deacetylase 3 (Homo sapiens, UniProt O15379)
Chain of Histone deacetylase 3 (O15379 whole entry): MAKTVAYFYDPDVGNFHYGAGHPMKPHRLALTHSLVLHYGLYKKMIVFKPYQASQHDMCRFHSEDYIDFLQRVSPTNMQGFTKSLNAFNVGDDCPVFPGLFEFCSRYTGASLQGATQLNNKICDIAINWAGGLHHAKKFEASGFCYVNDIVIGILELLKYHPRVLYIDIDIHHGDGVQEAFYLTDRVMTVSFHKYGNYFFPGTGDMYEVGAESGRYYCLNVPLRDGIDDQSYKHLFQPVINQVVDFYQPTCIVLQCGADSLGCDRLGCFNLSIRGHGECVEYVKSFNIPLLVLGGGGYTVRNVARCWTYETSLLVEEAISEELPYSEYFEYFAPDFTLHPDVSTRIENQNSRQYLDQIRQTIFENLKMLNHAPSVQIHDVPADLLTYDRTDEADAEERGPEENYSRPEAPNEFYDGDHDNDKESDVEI

Histone deacetylase 4 [8] = molecular target: T1, Histone deacetylase 4; assay: Inhibition of HDAC4 gain-of-function phenotype expressed in Escherichia coli
Target sequence in this assay (P56524 whole entry, looked up): as the sequence (P56524 whole entry) above

Histone deacetylase 2 = Histone deacetylase 2 (Homo sapiens, UniProt Q92769)
Chain of Histone deacetylase 2 (Q92769 whole entry): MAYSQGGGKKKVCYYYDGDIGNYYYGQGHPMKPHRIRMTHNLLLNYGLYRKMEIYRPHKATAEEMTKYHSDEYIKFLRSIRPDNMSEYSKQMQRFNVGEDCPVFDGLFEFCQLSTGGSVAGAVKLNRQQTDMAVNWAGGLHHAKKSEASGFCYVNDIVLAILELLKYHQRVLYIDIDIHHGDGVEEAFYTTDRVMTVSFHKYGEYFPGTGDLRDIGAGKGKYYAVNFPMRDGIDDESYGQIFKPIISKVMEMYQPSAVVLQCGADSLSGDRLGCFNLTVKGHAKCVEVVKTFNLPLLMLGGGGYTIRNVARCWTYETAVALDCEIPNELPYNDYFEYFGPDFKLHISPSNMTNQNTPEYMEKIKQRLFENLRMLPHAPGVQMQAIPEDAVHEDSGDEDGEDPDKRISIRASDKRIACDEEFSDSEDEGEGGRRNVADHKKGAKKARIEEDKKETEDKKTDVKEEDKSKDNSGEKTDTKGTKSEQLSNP

[9] = Antiproliferative activity against human renal epithelial cells by CellTiter-Blue cell viability assay; type: ADME, cell-based
[10] = molecular target: T2, Histone deacetylase 8 (Homo sapiens) (UniProt Q9BY41); settings: 10 uM
T2 sequence (whole entry): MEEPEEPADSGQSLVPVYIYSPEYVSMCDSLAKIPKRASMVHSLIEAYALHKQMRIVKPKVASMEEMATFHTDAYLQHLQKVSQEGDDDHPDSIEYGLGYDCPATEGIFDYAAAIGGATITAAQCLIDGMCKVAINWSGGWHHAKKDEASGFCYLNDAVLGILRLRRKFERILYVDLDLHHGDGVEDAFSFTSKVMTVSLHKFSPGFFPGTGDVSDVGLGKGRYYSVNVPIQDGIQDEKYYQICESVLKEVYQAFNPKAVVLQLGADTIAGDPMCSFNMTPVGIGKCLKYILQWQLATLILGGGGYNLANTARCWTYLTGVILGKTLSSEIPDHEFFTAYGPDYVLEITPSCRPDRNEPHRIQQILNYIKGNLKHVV
Description: Inhibition of HDAC8 expressed in Escherichia coli at 10 uM

A2780 = assay: Antiproliferative activity against human A2780 cells by CellTiter-Blue cell viability assay; type: functional, cell-based
Histone deacetylase 5 = Histone deacetylase 5 (Homo sapiens, UniProt Q9UQL6); assay: Inhibition of HDAC5 expressed in Escherichia coli
Chain of Histone deacetylase 5 (Q9UQL6 whole entry): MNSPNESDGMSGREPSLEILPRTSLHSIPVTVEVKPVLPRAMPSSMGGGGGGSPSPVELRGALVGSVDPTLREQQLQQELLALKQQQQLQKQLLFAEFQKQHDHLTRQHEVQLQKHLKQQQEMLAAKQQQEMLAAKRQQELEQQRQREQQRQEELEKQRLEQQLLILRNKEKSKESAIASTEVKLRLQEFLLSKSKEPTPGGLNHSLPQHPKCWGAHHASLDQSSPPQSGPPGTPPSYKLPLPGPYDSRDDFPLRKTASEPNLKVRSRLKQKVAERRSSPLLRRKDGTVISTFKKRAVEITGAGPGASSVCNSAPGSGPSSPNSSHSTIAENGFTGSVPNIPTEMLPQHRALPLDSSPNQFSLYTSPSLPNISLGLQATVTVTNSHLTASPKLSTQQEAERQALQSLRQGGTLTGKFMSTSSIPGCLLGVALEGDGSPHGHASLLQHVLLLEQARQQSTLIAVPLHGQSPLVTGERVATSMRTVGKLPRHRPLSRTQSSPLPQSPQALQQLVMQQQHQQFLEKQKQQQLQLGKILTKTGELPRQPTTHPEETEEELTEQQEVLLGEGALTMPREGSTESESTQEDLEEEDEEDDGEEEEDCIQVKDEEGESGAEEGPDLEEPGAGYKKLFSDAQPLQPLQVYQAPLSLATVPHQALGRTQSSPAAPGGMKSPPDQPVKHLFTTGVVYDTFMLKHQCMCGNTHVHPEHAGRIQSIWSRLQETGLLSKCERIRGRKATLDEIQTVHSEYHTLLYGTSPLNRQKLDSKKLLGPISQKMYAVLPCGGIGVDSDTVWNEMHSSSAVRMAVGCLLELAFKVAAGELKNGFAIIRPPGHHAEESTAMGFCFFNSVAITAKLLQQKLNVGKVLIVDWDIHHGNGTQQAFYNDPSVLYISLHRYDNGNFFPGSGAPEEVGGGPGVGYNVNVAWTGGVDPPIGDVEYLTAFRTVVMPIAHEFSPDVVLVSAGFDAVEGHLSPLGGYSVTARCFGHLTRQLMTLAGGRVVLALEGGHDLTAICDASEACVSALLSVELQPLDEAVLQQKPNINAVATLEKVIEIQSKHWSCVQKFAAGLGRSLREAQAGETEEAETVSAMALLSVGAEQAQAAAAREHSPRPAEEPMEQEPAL

[11] = molecular target: T3, Protein deacetylase HDAC6 (Homo sapiens) (UniProt Q9UBN7); assay: Inhibition of HDAC6 at 10 uM
T3 sequence (whole entry): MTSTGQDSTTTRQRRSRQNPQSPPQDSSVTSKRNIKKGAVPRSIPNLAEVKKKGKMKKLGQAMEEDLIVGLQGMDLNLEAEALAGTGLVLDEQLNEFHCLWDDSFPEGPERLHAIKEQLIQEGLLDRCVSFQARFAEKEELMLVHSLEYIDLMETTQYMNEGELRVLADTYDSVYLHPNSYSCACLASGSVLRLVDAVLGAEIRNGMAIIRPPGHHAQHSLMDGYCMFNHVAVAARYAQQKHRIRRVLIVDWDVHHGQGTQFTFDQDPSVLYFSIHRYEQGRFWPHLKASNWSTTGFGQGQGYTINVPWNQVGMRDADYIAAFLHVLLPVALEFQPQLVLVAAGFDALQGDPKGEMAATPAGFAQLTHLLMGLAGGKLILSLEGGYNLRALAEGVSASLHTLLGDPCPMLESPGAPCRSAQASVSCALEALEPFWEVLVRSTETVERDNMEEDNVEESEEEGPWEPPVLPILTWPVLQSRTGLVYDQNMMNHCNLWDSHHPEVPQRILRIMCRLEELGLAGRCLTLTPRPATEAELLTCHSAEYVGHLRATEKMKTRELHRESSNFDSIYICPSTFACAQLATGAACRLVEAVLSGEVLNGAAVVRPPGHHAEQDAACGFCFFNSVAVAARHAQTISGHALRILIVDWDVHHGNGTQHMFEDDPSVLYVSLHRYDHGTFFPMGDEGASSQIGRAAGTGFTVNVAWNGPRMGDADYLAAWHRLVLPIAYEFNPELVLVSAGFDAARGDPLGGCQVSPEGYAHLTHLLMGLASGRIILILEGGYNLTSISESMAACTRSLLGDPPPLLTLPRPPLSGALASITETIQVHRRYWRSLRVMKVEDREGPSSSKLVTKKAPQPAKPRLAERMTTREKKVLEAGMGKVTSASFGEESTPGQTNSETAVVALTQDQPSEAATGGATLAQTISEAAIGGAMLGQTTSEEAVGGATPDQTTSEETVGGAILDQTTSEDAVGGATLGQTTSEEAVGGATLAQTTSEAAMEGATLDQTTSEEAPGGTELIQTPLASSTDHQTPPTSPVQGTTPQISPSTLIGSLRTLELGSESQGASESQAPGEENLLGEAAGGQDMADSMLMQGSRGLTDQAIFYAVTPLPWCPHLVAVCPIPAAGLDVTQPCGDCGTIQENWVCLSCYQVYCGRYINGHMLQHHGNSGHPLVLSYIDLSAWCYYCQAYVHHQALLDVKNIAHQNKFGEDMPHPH

HCT-116 [12] = assay: Antiproliferative activity against human HCT116 cells by CellTiter-Blue cell viability assay; type: functional, cell-based
Histone deacetylase 7 = molecular target: T4, Histone deacetylase 7 (Homo sapiens, UniProt Q8WUI4); assay: Inhibition of HDAC7 expressed in Escherichia coli
T4 sequence (Q8WUI4 whole entry): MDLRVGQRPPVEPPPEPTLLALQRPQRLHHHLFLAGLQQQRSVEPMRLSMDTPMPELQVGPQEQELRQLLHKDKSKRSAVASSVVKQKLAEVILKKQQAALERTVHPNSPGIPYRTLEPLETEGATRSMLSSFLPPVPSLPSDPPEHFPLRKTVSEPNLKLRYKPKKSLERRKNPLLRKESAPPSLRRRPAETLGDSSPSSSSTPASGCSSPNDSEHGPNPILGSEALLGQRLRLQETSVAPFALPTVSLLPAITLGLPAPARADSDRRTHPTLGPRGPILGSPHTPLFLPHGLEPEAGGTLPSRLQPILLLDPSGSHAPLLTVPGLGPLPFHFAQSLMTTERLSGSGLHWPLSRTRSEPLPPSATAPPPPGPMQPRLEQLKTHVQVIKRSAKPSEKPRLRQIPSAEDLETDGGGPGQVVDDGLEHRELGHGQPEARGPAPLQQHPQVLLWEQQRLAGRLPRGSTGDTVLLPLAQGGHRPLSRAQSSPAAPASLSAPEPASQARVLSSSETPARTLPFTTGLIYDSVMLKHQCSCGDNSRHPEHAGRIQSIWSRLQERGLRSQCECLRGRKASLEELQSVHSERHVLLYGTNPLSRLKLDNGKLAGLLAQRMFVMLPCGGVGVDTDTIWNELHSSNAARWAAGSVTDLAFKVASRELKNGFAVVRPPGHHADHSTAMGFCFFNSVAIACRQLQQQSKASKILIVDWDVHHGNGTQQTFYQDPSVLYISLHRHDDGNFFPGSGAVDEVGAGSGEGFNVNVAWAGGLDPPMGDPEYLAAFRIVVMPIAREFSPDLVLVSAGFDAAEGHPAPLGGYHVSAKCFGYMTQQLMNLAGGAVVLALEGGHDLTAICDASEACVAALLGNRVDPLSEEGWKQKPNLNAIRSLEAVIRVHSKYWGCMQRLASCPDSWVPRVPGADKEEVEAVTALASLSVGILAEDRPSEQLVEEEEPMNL

A549 = assay: Antiproliferative activity against human A549 cells by CellTiter-Blue cell viability assay; type: functional, cell-based
Plasma [13] = assay: Stability in dog plasma at 5 uM after 4 hrs; type: ADME, cell-free, Canis lupus familiaris
Plasma [14] = assay: Stability in human plasma at 5 uM after 4 hrs; type: ADME, cell-free
Plasma [15] = assay: Stability in rat plasma at 5 uM after 4 hrs; type: ADME, cell-free
Plasma [16] = assay: Stability in mouse plasma at 5 uM after 4 hrs; type: ADME, cell-free
[17] = molecular target: T5, Protein deacetylase HDAC6 (Homo sapiens, UniProt Q9UBN7)
T5 sequence (Q9UBN7 whole entry): T3 sequence (whole entry)

[18] = Toxicity in ip dosed BALB/c mouse assessed as maximum tolerated dose; type: organism-based; settings: in vivo
[19] = Oral bioavailability in Sprague-Dawley rat; type: ADME, organism-based; settings: in vivo
[20] = Intrinsic clearance in Sprague-Dawley rat liver microsomes; type: ADME, Microsome
[21] = Terminal half life in Sprague-Dawley rat; type: ADME, organism-based; settings: in vivo
Histone deacetylase 8 = molecular target: T6, Histone deacetylase 8 (Homo sapiens, UniProt Q9BY41); assay: Inhibition of HDAC8 expressed in Escherichia coli
T6 sequence (Q9BY41 whole entry): T2 sequence (whole entry)

[22] = Clearance in Sprague-Dawley rat plasma; type: ADME, organism-based
Mus musculus [23] = assay: Toxicity against human HCT116 cells xenografted BALB/c mouse assessed as body weight loss at 60 mg/kg, ip administered 5 days per week for 2.5 weeks; type: organism-based, HCT-116; set-up: dose 60 mg/kg, route intraperitoneal; settings: in vivo
[24] = Intrinsic clearance in human liver microsomes; type: ADME, Microsome
Mus musculus [25] = assay: Toxicity against human HCT116 cells xenografted BALB/c mouse assessed as body weight loss at 25 mg/kg, ip administered 5 days per week for 2.5 weeks; type: organism-based, HCT-116; set-up: dose 25 mg/kg, route intraperitoneal; settings: in vivo
HCT-116 [26] = assay: Antitumor activity against human HCT116 cells xenografted BALB/c mouse assessed as tumor growth inhibition at 60 mg/kg, ip administered for 5 days per week for 2.5 weeks; settings: HCT-116, ip, read-out: TGI
Mus musculus [27] = assay: Toxicity against human HCT116 cells xenografted BALB/c mouse assessed as body weight loss at 100 mg/kg, ip administered 5 days per week for 2.5 weeks; type: organism-based, HCT-116; set-up: dose 100 mg/kg, route intraperitoneal; settings: in vivo

Structure (SMILES)	IC50 (HeLa)	IC50 (Histone deacetylase 1)	IC50 (Histone deacetylase 4 [7])	IC50 (G-401)	IC50 (Histone deacetylase 3)	IC50 (Histone deacetylase 4 [8])	IC50 (Histone deacetylase 2)	IC50 [9]	IC50 (A2780)	IC50 (Histone deacetylase 5)	IC50 (HCT-116 [12])	IC50 (Histone deacetylase 7)	IC50 (A549)	Stability (Plasma [13])	Stability (Plasma [14])	Stability (Plasma [15])	Stability (Plasma [16])	IC50 [17]	MTD [18]	IC50 (Histone deacetylase 8)	also measured
CC(=O)CCCCC[C@H](NC(=O)CCN1CCCCC1)C(=O)Nc1cnc2ccccc2c1.Cl.Cl	2 µM	0.14 µM																			Activity (Plasma [1]): Not Active; Stability (Plasma [2]): Stable; AUC(0-inf) [3]: 0.05 µM·h; clearance [4]: > 150 mL/min/kg; Stability (Plasma [5]): Stable; Activity (Plasma [6]): Not Active
CCC(=O)CCCCC[C@H](NC(=O)Cc1c(C)[nH]c2ccc(OC)cc12)c1ncc(-c2ccccc2)[nH]1	0.34 µM	0.026 µM	> 10 µM	0.25 µM	0.048 µM	> 10 µM	0.059 µM	5.3 µM	0.42 µM	> 10 µM	0.33 µM	> 10 µM	5.2 µM								inhibition [10]: 40%; inhibition [11]: 40%
COc1ccc2[nH]c(C)c(CC(=O)N[C@@H](CCCCCC(C)=O)c3ncc(-c4ccccc4)[nH]3)c2c1	0.88 µM	0.059 µM	> 10 µM	0.96 µM	0.12 µM	6 µM	0.11 µM	16 µM	2.2 µM	> 10 µM	0.5 µM	> 10 µM	6.3 µM	Stable	Stable	Stable	Stable	0.34 µM	60 mg/kg	> 5 µM	bioavailability [19]: 15%; microsomal CLint [20]: > 400 µL/min/mg; half-life [21]: 1.3 h; clearance [22]: 80 mL/min/kg; Activity (Mus musculus [23]): < 10%; microsomal CLint [24]: > 400 µL/min/mg
Nc1ccccc1NC(=O)c1ccc(CNC(=O)OCc2cccnc2)cc1 [ENTINOSTAT]				1.3 µM				> 20 µM	3 µM		0.7 µM		1.2 µM						25 mg/kg		Activity (Mus musculus [25]): < 10%; inhibition in vivo at 60 mg/kg (HCT-116 [26]): 69%
COc1ccc2[nH]c(C)c(CC(=O)N[C@@H](CCCCCC(C)=O)c3nc4ccc(Cl)cc4[nH]3)c2c1	3.1 µM	0.67 µM	> 10 µM	7.5 µM	1 µM	4.2 µM	0.88 µM	41 µM	11 µM	> 10 µM	4.2 µM	> 10 µM	8.2 µM	Stable	Stable	Stable	Stable	0.97 µM		> 10 µM	
O=C(CCCCCCC(=O)Nc1ccccc1)NO [VORINOSTAT]																					Activity (Mus musculus [27]): < 10%
